Measurements taken from the supplement of paper PMC10307832.

Assays:
Experiment in all cases: relative viability (nuclei count vs DMSO), 5 days (fraction); higher = more cells survive
LK-2 = test system: LK-2
Method in brief: (§1)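 Lung cancer cell lines in 1536-well plates were dosed by pin tool the day after seeding, either with one drug alone or with a fixed anchor-drug dose plus five library-drug doses (not always all listed) in √10 steps. After 5 days, cells were fixed and their nuclei stained in one step (final 0.05% Triton X-100, 1% formaldehyde, 1 ug/ml Hoechst), then counted on 4× images. Relative viability is the nuclei count in treated wells divided by that in vehicle wells. Values are medians of duplicate plates.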

HCC-827 = test system: HCC-827
Method in brief: as §1

COR-L 105 = test system: COR-L 105
Method in brief: as §1

NCI-H661 = test system: NCI-H661
Method in brief: as §1

EKVX = test system: EKVX
Method in brief: as §1

201T = test system: 201T
Method in brief: as §1

NCI-H1734 = test system: NCI-H1734
Method in brief: as §1

COR-L23 = test system: COR-L23
Method in brief: as §1

HCC-15 = test system: HCC-15
Method in brief: as §1

NCI-H2347 = test system: NCI-H2347
Method in brief: as §1

HCC-78 = test system: HCC-78
Method in brief: as §1

NCI-H1944 = test system: NCI-H1944
Method in brief: as §1

C=C1C(=O)O[C@@H](CCCCCCCC)[C@@H]1C(=O)O [C-75] + O=C(CCCCCCC(=O)Nc1ccccc1)NO [Vorinostat] (partner 1 µM)
relative viability (LK-2; first compound 0.08 µM): 0.387
relative viability (LK-2; first compound 0.253 µM): 0.315
relative viability (LK-2; first compound 0.8 µM): 0.319
relative viability (LK-2; first compound 2.53 µM): 0.286
relative viability (LK-2; first compound 8 µM): 0.324
relative viability (HCC-827; first compound 0.253 µM): 0.662
relative viability (HCC-827; first compound 0.8 µM): 0.721
relative viability (HCC-827; first compound 8 µM): 0.88
relative viability (COR-L 105; first compound 0.08 µM): 0.906
relative viability (COR-L 105; first compound 0.253 µM): 0.826
relative viability (COR-L 105; first compound 0.8 µM): 0.895
relative viability (COR-L 105; first compound 2.53 µM): 0.859
relative viability (COR-L 105; first compound 8 µM): 0.813
relative viability (NCI-H661; first compound 0.08 µM): 0.762
relative viability (NCI-H661; first compound 0.253 µM): 0.828
relative viability (NCI-H661; first compound 0.8 µM): 0.741
relative viability (NCI-H661; first compound 2.53 µM): 0.657
relative viability (NCI-H661; first compound 8 µM): 0.774
relative viability (EKVX; first compound 0.08 µM): 0.725
relative viability (EKVX; first compound 0.253 µM): 0.827
relative viability (EKVX; first compound 0.8 µM): 0.654
relative viability (EKVX; first compound 8 µM): 0.728
relative viability (201T; first compound 0.08 µM): 0.976
relative viability (201T; first compound 0.253 µM): 1.31
relative viability (201T; first compound 0.8 µM): 0.91
relative viability (201T; first compound 2.53 µM): 0.936
relative viability (201T; first compound 8 µM): 0.979
relative viability (NCI-H1734; first compound 0.08 µM): 0.834
relative viability (NCI-H1734; first compound 0.253 µM): 0.877
relative viability (NCI-H1734; first compound 0.8 µM): 0.766
relative viability (NCI-H1734; first compound 2.53 µM): 0.538
relative viability (NCI-H1734; first compound 8 µM): 0.693
relative viability (COR-L23; first compound 0.08 µM): 0.507
relative viability (COR-L23; first compound 0.253 µM): 0.408
relative viability (COR-L23; first compound 0.8 µM): 0.446
relative viability (COR-L23; first compound 2.53 µM): 0.37
relative viability (COR-L23; first compound 8 µM): 0.327
relative viability (HCC-15; first compound 0.08 µM): 0.831
relative viability (HCC-15; first compound 0.253 µM): 0.918
relative viability (HCC-15; first compound 0.8 µM): 0.838
relative viability (HCC-15; first compound 2.53 µM): 0.862
relative viability (HCC-15; first compound 8 µM): 0.835
relative viability (NCI-H2347; first compound 0.08 µM): 0.567
relative viability (NCI-H2347; first compound 0.253 µM): 0.842
relative viability (NCI-H2347; first compound 0.8 µM): 0.614
relative viability (NCI-H2347; first compound 2.53 µM): 0.535
relative viability (NCI-H2347; first compound 8 µM): 0.615
relative viability (HCC-78; first compound 0.08 µM): 0.372
relative viability (HCC-78; first compound 0.253 µM): 0.668
relative viability (HCC-78; first compound 0.8 µM): 0.373
relative viability (HCC-78; first compound 8 µM): 0.372
relative viability (NCI-H1944; first compound 0.08 µM): 0.571
relative viability (NCI-H1944; first compound 0.253 µM): 0.591
relative viability (NCI-H1944; first compound 0.8 µM): 0.475
relative viability (NCI-H1944; first compound 2.53 µM): 0.42
relative viability (NCI-H1944; first compound 8 µM): 0.483
